Each structure is given as a SMILES string.

Common to all, as to experiment: Checkerboard MIC assay, FICI
Holding throughout (settings): combination with Compound 1

Experiment [1] deals with R. microsporus ATCC 14050. Format: cell-based, Rhizopus microsporus. The source says: (§1) The following assay was used to determine the minimum inhibitory concentration (MIC) and fractional inhibitory concentration index (FICI) for combinations of an antifungal agent and a glycopeptide antibacterial agent. This assay and methods for calculating FICI are well known in the art. See, for example, Eliopoulos, E. G. and R. Moellering, Jr. “Antimicrobial Combinations” in Antibiotics in Laboratory Medicine, edited by V. Lorian, 4th Ed., Williams & Wilkins, Baltimore, MD, pp. 330-396 (1996); […] et al., Antimicrobial Agents and Chemotherapy 47(4):1416-1418 (2003); or […] et al., Antimicrobial Agents and Chemotherapy 46(10):3323-3326 (2002). […] The MIC of the glycopeptide antibacterial agent determined from this experiment was used in FIC calculations. […]

For experiment [2], the system named is F. moniliforme ATCC 38159. Format: cell-based, Fusarium moniliforme.
Text: as §1

In experiment [3] the test system is A. fumigatus ATCC 14110. Format: cell-based, Aspergillus fumigatus.
Text: as §1

Take `C[C@@H]1[C@H](O)[C@@H](C)/C=C/C=C/C=C/C=C/C=C/C=C/C=C/[C@H](O[C@@H]2O[C@H](C)[C@@H](O)[C@H](N)[C@@H]2O)C[C@@H]2O[C@](O)(C[C@@H](O)C[C@@H](O)[C@H](O)CC[C@@H](O)C[C@@H](O)CC(=O)O[C@H]1C)C[C@H](O)[C@H]2C(=O)O` [Amphotericin B]: the FICI worked out at 0.27 in experiment [1], 0.53 in experiment [2] and 0.31 in experiment [3].
As for `C[C@@H]1[C@H](O)[C@@H](C)/C=C/C=C/CC/C=C/C=C/C=C/C=C/C(O[C@H]2O[C@H](C)[C@@H](O)[C@H](N)[C@@H]2O)CC2O[C@](O)(CC(O)C(O)CCC(O)CC(O)CC(O)CC(=O)O[C@H]1C)CC(O)C2C(=O)O` (stereo partly drawn) [Nystatin], the FICI in experiment [1] turned out to be 0.51; in experiment [2], 0.51; in experiment [3], 1.25.

The values are drawn from patent publication US7521418B2, “Use of a polyene macrolide antifungal agent in combination with a glycopeptide antibacterial agent” (Theravance, Inc., priority 2003, dated 2009).
